{"source": "patent EP0573218B1", "about": "“4-Carboxyimidazoles as angiotensin II antagonists and their thrapeutic use” (SANKYO COMPANY LIMITED, priority 1992, dated 1993)", "system": "All receptor", "assay": "Inhibition of pressor response to intravenous angiotensin II in anaesthetised rats (AII receptor blocking activity)", "format": "in vivo", "conditions": "i.v.; dose inhibiting by fifty percent the pressor response to 50 ng/kg i.v. angiotensin II; angiotensin II injected two minutes after test compound; male Wister-Imamichi rats", "experimental": "Evaluation of All receptor blocking activity by Inhibition of pressor response to angiotensin II\nThe biological activity of each compound was assessed by determining the dose required to inhibit the pressor response to intravenous angiotensin II by fifty percent (ID50) in rats. Male Wister-Imamichi rats, each weighing 300 to 400 g, were anaesthesized by intraperitoneal injection of 100 mg/Kg of sodium thiobutabarbital [Inactin (trade name)] and two cannulae were inserted: one into the femoral artery for measuring blood pressure and the other into the femoral vein for injecting drugs. Fifty ng/kg of angiotension II were intravenously administered at intervals of about 10 minutes, and the elevation of blood pressure (normally about 50 mmHg) was observed. After constant pressor responses to angiotensin II were obtained, a test compound was intravenously administered. Two minutes later, angiotension II was again injected, and the inhibitory effect of the test compound was estimated. The percent inhibitions of the pressor response to angiotensin II by progressive increase of the test compound was used to calculate the value of ID50. Angiotensin II was used in this test dissolved in 0.5 % bovine serum albumin (BSA) and the test compounds were dissolved in 100% dimethyl sulphoxide (DMSO).", "data": [{"smiles": "CCOCc1nc(C(C)(C)O)c(C(=O)O)n1Cc1ccc(-c2ccccc2-c2nnn[nH]2)cc1", "note": "[Example 6, 2-Ethoxymethyl-4-(1-hydroxy-1-methylethyl)-1-{4-[2-(tetrazol-5-yl)phenyl]phenyl}methylimidazole-5-carboxylic acid]", "values": [{"measurement": "ID50", "result": 0.0059, "unit": "mg/kg"}]}, {"smiles": "CCCOCc1nc(C(C)(C)O)c(C(=O)O)n1Cc1ccc(-c2ccccc2-c2nnn[nH]2)cc1", "note": "[Example 10, 4-(1-Hydroxy-1-methylethyl)-2-propoxymethyl-1-{4-[2-(tetrazol-5-yl)phenyl]phenyl}methylimidazole-5-carboxylic acid]", "values": [{"measurement": "ID50", "result": 0.016, "unit": "mg/kg"}]}, {"smiles": "COCc1nc(C(C)(C)O)c(C(=O)O)n1Cc1ccc(-c2ccccc2-c2nnn[nH]2)cc1", "note": "[Example 2, 4-(1-Hydroxy-1-methylethyl)-2-methoxymethyl-1-{4-[2-(tetrazol-5-yl)phenyl]phenyl}methylimidazole-5-carboxylic acid]", "values": [{"measurement": "ID50", "result": 0.0066, "unit": "mg/kg"}]}, {"smiles": "CCSc1nc(C(C)(C)O)c(C(=O)O)n1Cc1ccc(-c2ccccc2-c2nnn[nH]2)cc1", "note": "[Example 27, 2-Ethylthio-4-(1-hydroxy-1-methylethyl)-1-{4-[2-(tetrazol-5-yl)phenyl]phenyl}methyl-imidazole-5-carboxylic acid]", "values": [{"measurement": "ID50", "result": 0.019, "unit": "mg/kg"}]}, {"smiles": "COC(C)c1nc(C(C)(C)O)c(C(=O)O)n1Cc1ccc(-c2ccccc2-c2nnn[nH]2)cc1", "note": "(stereo not shown) [Example 14, 4-(1-Hydroxy-1-methylethyl)-2-(1-methoxyethyl)-1-{4-[2-(tetrazol-5-yl)phenyl]phenyl}methyl-imidazole-5-carboxylic acid]", "values": [{"measurement": "ID50", "result": 0.074, "unit": "mg/kg"}]}, {"smiles": "CSCc1nc(C(C)(C)O)c(C(=O)O)n1Cc1ccc(-c2ccccc2-c2nnn[nH]2)cc1", "note": "[Example 22, 4-(1-Hydroxy-1-methylethyl)-2-methylthiomethyl-1-{4-[2-(tetrazol-5-yl)phenyl]phenyl}methyl-imidazole-5-carboxylic acid]", "values": [{"measurement": "ID50", "result": 0.025, "unit": "mg/kg"}]}, {"smiles": "CSc1nc(C(C)(C)O)c(C(=O)O)n1Cc1ccc(-c2ccccc2-c2nnn[nH]2)cc1", "note": "[Example 25, 4-(1-Hydroxy-1-methylethyl)-2-methylthio-1-{4-[2-(tetrazol-5-yl)phenyl]phenyl}methyl-imidazole-5-carboxylic acid]", "values": [{"measurement": "ID50", "result": 0.026, "unit": "mg/kg"}]}]}
